# Tests used:
# [1] = test system: LepRB signaling (LepRB, Jak2, Stat3); assay: Leptin receptor signaling in LepRB-expressing 293 cells under tunicamycin-induced ER stress; format: cell-based, Human; settings: tunicamycin 3 μg/ml (or DMSO) 4 hours, then leptin 100 ng/ml 45 minutes
# From the text: The leptin receptor belongs to the interleukin 6 (IL-6) receptor family of class I cytokine receptors^30. […] Binding of leptin to LepRb initiates a conformational change that leads to trans-autophosphorylation and activation of LepRb-associated Jak2^31,32 Activated Jak2 then phosphorylates the tyrosine residues within the LepRb/Jak2 complex to mediate downstream signaling. […] To examine whether UPR might alter the leptin signaling, LepRB-expressing 293 cells were first exposed to tunicamycin (3 μg/ml) to activate ER stress for a period of 4 hours and then treated with leptin (100 ng/ml) for 45 minutes. […] Finally, as a downstream element, leptin-stimulated Stat3 activation was analyzed.
# [2] = test system: HFD-fed obese C57BL/6 mice; assay: PBA pretreatment and leptin in HFD-fed obese mice (bodyweight, metabolic cage, DEXA); format: in vivo
# Description: C57BL/6 mice that were kept on high fat diet feeding for 25 weeks were either treated with vehicle or PBA (1 g/kg/day) for 10 days. Following the pretreatment period mice were given daily leptin (5 mg/kg/day, IP) treatment. (a) Bodyweight (g), (b) % decrease in the bodyweight, and (c) 24 hour food intake (g) during the 30 days of leptin administration. Metabolic cage analysis was performed after 25 days of treatment (d) O2 consumption (ml/kg/hr), (e) CO2 production (ml/kg/hr), (f) X-axis ambulatory activity, (g) Respiratory exchange ratio (VCO2/VO2), (h) Heat generation (kcal/hr). Dexa scan analysis of (i) Lean body mass (g), (j) Fat % and (k) Total fat amount (g). C57BL6 mice were fed a HFD for a period of 25 weeks and then either treated with PBA (1 g/kg) or VEH for 16 days. (1) PERK phosphorylation in the hypothalamus extracts. (m) Leptin-stimulated Stat3^Tyr705 phosphorylation in the VEH and PBA-treated HFD-fed mice. (n) C57BL6 mice were fed a ND for a period of 25 weeks and then either treated with PBA (1 g/kg) or VEH for 16 days. Following the treatment period mice were starved for six hours and subsequently injected with leptin (IP, 1 mg/kg). Stat3^Tyr705 phoshorylation and total Stat levels were examined in the hypothalamus extracts. (n=6 in each group). Error bars are ±S.E.M., P values are determined by Student's t-test. (*p<0.05, **p<0.01, ***p<0.001)
# Obesity owing to a high fat diet is fundamentally different from that seen in ob/ob mice in that it occurs in the face of high leptin levels. To determine whether PBA also sensitizes HFD-fed obese mice to leptin, mice that were kept on HFD for 25 weeks were pretreated with vehicle or PBA for 10 days, and then given leptin treatment (5 mg/kg/day). Leptin administration to the vehicle-treated group led to an acute weight loss, which was rapidly regained (FIG. 3a). By the end of treatment period, leptin created a slight but significant change in the body weight in the vehicle-treated group by reducing it from 42.42±0.27 g to 40.78±0.55 (3.8±0.9% decrease in bodyweight) (FIG. 3a,b). […] During the course of the experiment we placed the vehicle and PBA-treated groups in metabolic cages to investigate metabolic homeostasis in detail. […] Following the metabolic cage analysis we performed DEXA scan to analyze whole body fat content.
# [3] = test system: Stat3 Tyr705 phosphorylation; assay: Leptin-stimulated Stat3 Tyr705 phosphorylation in hypothalamus of wt lean and ob/ob mice; format: in vivo; settings: leptin 0.1 mg/kg IP, six hour fasting, 30 minutes
# Description: Nine-week old lean wt and ob/ob mice were orally treated with either PBA (1 g/kg/day) or vehicle (VEH) for 26 days and PERK (Thr980) phosphorylation is examined in the hypothalamus extracts with direct immunoblotting. (B) Ten week-old wt lean and ob/ob mice were intraperitoneally injected with leptin (0.1 mg/kg) after six-hour starvation. Hypothalami were removed 30 minutes after the injections, and pStat3^Tyr705 and total Stat3 levels were examined. (C) Nine-week old lean wt and ob/ob mice were orally treated with PBA (1 g/kg/day) for 10 days. Following the pretreatment period, leptin-deficient ob/ob mice were either administered with VEH or with different doses of leptin through the intraperitoneal route. The effect of VEH or PBA administration on (C) bodyweight (g), (D) percent decrease in bodyweight and (E) 24-hour food intake (n=3 for VEH and n=4 PBA-treated group). Effect of 5 mg/kg/day leptin administration on (F) bodyweight, (G) percent decrease in bodyweight and (H) 24-hour food intake in VEH- or PBA-treated ob/ob mice (n=3 for VEH and n=4 PBA-treated group). Analysis of the same parameters (body weight, percent decrease in bodyweight and 24-hour food intake) in (I, J, K) 1 mg/kg/day and (L, M, N) 0.1 mg/kg/day leptin-treated mice (n=3 for VEH and n=4 PBA-treated group). Data presented as means±SEM (*p<0.05, **p<0.01, ***p<0.001). […]
# [4] = test system: hypothalamus of lean mice; assay: Tunicamycin infusion to the third ventricle of lean mice; format: in vivo; settings: leptin 1 mg/kg IP 5½ hours after third ventricle tunicamycin or vehicle infusion, 30 minutes after leptin
# From the text: Having shown that ER stress is increased in the hypothalamus of HFD-fed mice and causes leptin resistance in the cellular systems, we sought to investigate whether leptin action could also be blocked by directly inducing ER stress in brains of lean mice.
# Next, we investigated the expression patterns of leptin resistance markers such as neuropeptide Y (NPY) and agouti related peptide (AgRP) in the vehicle- and tunicamycin-infused mice. […] In addition, to exclude the possibility that tunicamycin infusion leads to a decay in mRNA degradation of NPY and AgRP due to a possible toxic effect, we analyzed mRNA levels of IR and insulin receptor substrate 1 (IRS1).
# To assess whether increased ER stress and activation of UPR signaling would create leptin resistance and block the leptin-stimulated Stat3 activation in the hypothalamus, leptin (1 mg/kg/day) was intraperitoneally administered 5½ hours after tunicamycin infusion. The experiment was ended by dissection of the hypothalami 30 minutes after leptin administration. […] In contrast, administration of tunicamycin to the third ventricle and creation of ER stress, in complete accordance with our data obtained from 293 cells, blocked activation of Stat3 in the hypothalamus (data not shown).
# [5] = mice on HFD 25 weeks, leptin 5 mg/kg/day IP, 30 days, vehicle or PBA (1 g/kg/day) pretreated
substance,measurement,setting,value
leptin: adipocyte-derived hormone that suppresses appetite,leptin-induced Stat3 phosphorylation (Tyr705),[1],significant increase
same,leptin-stimulated LepRB tyrosine phosphorylation,[1],marked increase
same,lean mass,"[2]; HFD-fed mice, DEXA scan",does not change
same,initial body weight,"[2]; mice on HFD 25 weeks, before leptin 5 mg/kg/day, vehicle or PBA pretreated 10 days",42.42 ± 0.27 g
same,body weight at end of treatment period,[2]; [5],40.78 ± 0.55 g
same,decrease in bodyweight,[2]; [5],3.8±0.9%
same,Stat3 Tyr705 phosphorylation in the hypothalamus,[3]; ob/ob mice,completely absent
same,Stat3 Tyr705 phosphorylation in the hypothalamus,[3]; wt lean mice,responded well
same,Stat3 phosphorylation (activation) in the hypothalamus,[4],marked increase

# From patent US9283277B2, “Methods and compositions for the treatment of obesity” (Children's Medical Center Corporation, priority 2008, dated 2016)
